The results in this text go back to BindingDB's records for doi:10.1021/acs.jnatprod.0c01036 (University of Illinois At Chicago, 2021).

This test deals with Kappa-type opioid receptor (Homo sapiens, UniProt P41145). Nature of the test: Displacement of [3H]-U69593 from human kappa opioid receptor expressed in U2OS cells by radioligand binding assay. For orientation: Displacement assays read how much labelled ligand stays bound in the presence of the test substance.
Chain of Kappa-type opioid receptor (P41145 whole entry): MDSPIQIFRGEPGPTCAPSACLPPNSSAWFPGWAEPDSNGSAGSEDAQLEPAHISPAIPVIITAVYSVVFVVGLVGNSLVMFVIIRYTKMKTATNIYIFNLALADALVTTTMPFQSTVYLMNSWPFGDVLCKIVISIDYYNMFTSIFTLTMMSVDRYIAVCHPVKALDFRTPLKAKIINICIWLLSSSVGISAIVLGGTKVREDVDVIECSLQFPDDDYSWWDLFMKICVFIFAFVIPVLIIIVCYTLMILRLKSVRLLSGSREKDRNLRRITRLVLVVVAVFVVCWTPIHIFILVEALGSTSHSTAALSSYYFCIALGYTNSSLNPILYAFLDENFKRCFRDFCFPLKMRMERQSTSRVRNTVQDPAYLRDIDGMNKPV

By Ki is commonly meant a measure of affinity in units of concentration, obtained from inhibition or displacement. Low values mean tighter binding, high ones weaker binding. With `C/C=C1/CN2CC[C@@]34C(=Nc5ccccc53)C(C(=O)OC)[C@H]1C[C@H]24` (stereo partly specified), the inhibition constant (Ki) is 89 nM.
